Measured values taken from ChEMBL document CHEMBL5244272 (Eur J Med Chem, 2021).
Values after ≈ are worked out from the molar mass of the structure shown.

What was measured:
[1] = system: Plasmodium falciparum; experiment: Antimalarial activity against late blood stage Plasmodium falciparum NF54 gametocytes; assay type: functional, organism-based
[2] = system: Plasmodium falciparum; experiment: Antimalarial activity against chloroquine-sensitive Plasmodium falciparum NF54 infected in po dosed mouse; assay type: functional
[3] = system: Plasmodium falciparum; experiment: Antimalarial activity against chloroquine-sensitive Plasmodium falciparum NF54 infected in iv dosed mouse; assay type: functional
[4] = system: Plasmodium falciparum; experiment: Antimalarial activity against chloroquine-sensitive Plasmodium falciparum NF54; assay type: functional, organism-based
[5] = system: Plasmodium yoelii; experiment: Antimalarial activity against Plasmodium yoelii infected in sc dosed mouse; assay type: functional
[6] = system: Plasmodium berghei; experiment: Antimalarial activity against Plasmodium berghei infected in sc dosed mouse; assay type: functional; conditions: Plasmodium berghei
[7] = system: Plasmodium yoelii; experiment: Antimalarial activity against Plasmodium yoelii infected in po dosed mouse; assay type: functional
[8] = system: Plasmodium berghei; experiment: Antimalarial activity against Plasmodium berghei infected in po dosed mouse; assay type: functional
[9] = system: Plasmodium falciparum; experiment: Antimalarial activity against Plasmodium falciparum RKL9; assay type: functional, organism-based
[10] = system: Plasmodium falciparum; experiment: Antimalarial activity against Plasmodium falciparum 3D7; assay type: functional, organism-based
[11] = system: Plasmodium falciparum; experiment: Antimalarial activity against ART-sensitive Plasmodium falciparum W2; assay type: functional, organism-based
[12] = system: Plasmodium falciparum; experiment: Antimalarial activity against ART-resistant Plasmodium falciparum Dd2 harboring R539T mutant; assay type: functional, organism-based
[13] = system: Plasmodium falciparum; experiment: Antimalarial activity against ART-resistant Plasmodium falciparum NF54 harboring […] mutant; assay type: functional, organism-based
[14] = system: Plasmodium falciparum; experiment: Antimalarial activity against ART-sensitive Plasmodium falciparum 3D7; assay type: functional, organism-based
[15] = system: Plasmodium falciparum; experiment: Antimalarial activity against ART-sensitive Plasmodium falciparum NF54; assay type: functional, organism-based
[16] = system: Plasmodium falciparum; experiment: Antimalarial activity against Plasmodium falciparum W2; assay type: functional, organism-based
[17] = system: Plasmodium falciparum; experiment: Antimalarial activity against Plasmodium falciparum NF54; assay type: functional, organism-based
[18] = system: Plasmodium falciparum; experiment: Antimalarial activity against Plasmodium falciparum K1; assay type: functional, organism-based
[19] = system: Plasmodium berghei; experiment: Antimalarial activity against Plasmodium berghei ANKA infected in po dosed mouse; assay type: functional
[20] = system: Plasmodium berghei; experiment: Antimalarial activity against Plasmodium berghei infected in mouse; assay type: functional; conditions: Plasmodium berghei
[21] = system: Plasmodium falciparum; experiment: Antimalarial activity against Plasmodium falciparum Dd2; assay type: functional, organism-based
[22] = Toxicity in brine shrimp; conditions: artemia salina
[23] = system: Plasmodium berghei; experiment: Antimalarial activity against Plasmodium berghei K173 infected in mouse; assay type: functional
[24] = system: Plasmodium falciparum; experiment: Antimalarial activity against chloroquine-sensitive Plasmodium falciparum HB3; assay type: functional, organism-based
[25] = system: Plasmodium falciparum; experiment: Antimalarial activity against chloroquine-resistant Plasmodium falciparum K1; assay type: functional, organism-based
[26] = system: Plasmodium yoelii; experiment: Antimalarial activity against Plasmodium yoelii infected in mouse; assay type: functional

C[C@H]1[C@H](N2CCN(S(=O)(=O)c3cccc(C(F)(F)F)c3)CC2)O[C@@H]2O[C@]3(C)CC[C@H]4[C@H](C)CC[C@@H]1[C@@]24OO3
IC50 [1]: 0.4 nM

C[C@H]1[C@H](CC(C[C@H]2O[C@@H]3O[C@]4(C)CC[C@H]5[C@H](C)CC[C@@H]([C@H]2C)[C@@]35OO4)C(=O)O)O[C@@H]2O[C@]3(C)CC[C@H]4[C@H](C)CC[C@@H]1[C@@]24OO3 (some centres not stated)
ED50 [2]: 2 mg/kg
ED50 [3]: 0.8 mg/kg
EC50 [4]: 2.4 nM

C[C@H]1[C@H](NC2CCOCC2)O[C@@H]2O[C@]3(C)CC[C@H]4[C@H](C)CC[C@@H]1[C@@]24OO3
ED90 [5]: 1.25 mg/kg
ED90 [6]: 0.18 mg/kg
ED90 [7]: 1.84 mg/kg
ED90 [8]: 1.3 mg/kg

CC1(c2ccccc2)OOC(c2ccccc2)(c2ccccc2)OO1
IC50 [9]: 3.91 µg/mL

CC12C=CC(=O)CC1OC(c1c[nH]c3ccccc13)OO2 (configuration not stated)
IC50 [9]: 1170 nM
IC50 [10]: 1240 nM

C[C@H]1[C@H](c2cccn2C)O[C@@H]2O[C@]3(C)CC[C@H]4[C@H](C)CC[C@@H]1[C@@]24OO3
ED50 [6]: 0.7 mg/kg
ED90 [8]: 8.5 mg/kg

C[C@H]1[C@@H](OCCCNc2ccc([N+](=O)[O-])c3nonc23)O[C@@H]2O[C@]3(C)CC[C@H]4[C@H](C)CC[C@@H]1[C@@]24OO3
IC50 [11]: 9.6 nM
IC50 [12]: 19.6 nM
IC50 [13]: 9.5 nM
IC50 [14]: 22.6 nM
IC50 [15]: 11.2 nM

COc1cc(C2OOC3(C)C=CC(=O)CC3O2)ccc1O (configuration not stated)
IC50 [9]: 1060 nM
IC50 [10]: 1240 nM

CO[C@H]1O[C@@H]2O[C@@]3(C)CC[C@H]4[C@H](C)CC[C@@H]([C@H]1C)[C@@]24OO3
IC50 [16]: 7 nM
IC50 [17]: 2 nM
IC50 [18]: 9 nM
ED50 [19]: 10.57 mg/kg
ED50 [20]: 6 mg/kg

C[C@H]1[C@H](N2CCN(C(=O)c3ccc(F)cc3)CC2)O[C@@H]2O[C@]3(C)CC[C@H]4[C@H](C)CC[C@@H]1[C@@]24OO3
IC50 [21]: 1.5 nM
IC50 [17]: 1.06 nM
IC50 [18]: 2.1 nM
IC50 [1]: 0.6 nM

O=P1(N(CCCl)CCCl)NCCCO1 (configuration not stated) [CYCLOPHOSPHAMIDE ANHYDROUS]
LC50 [22]: 1.08 µg/mL (≈ 4.14 µM)

CCN(Cc1cc(C2(C)OOC(c3c[nH]c4ccccc34)OO2)ccc1O)c1ccccc1 (configuration not stated)
IC50 [9]: 8.19 µg/mL

C[C@H]1[C@H](CC(COC(=O)c2cc[n+]([O-])cc2)C[C@H]2O[C@@H]3O[C@]4(C)CC[C@H]5[C@H](C)CC[C@@H]([C@H]2C)[C@@]35OO4)O[C@@H]2O[C@]3(C)CC[C@H]4[C@H](C)CC[C@@H]1[C@@]24OO3 (some centres not stated)
ED50 [2]: 2 mg/kg
ED50 [3]: 0.8 mg/kg
EC50 [4]: 0.53 nM

CCO[C@H]1O[C@@H]2O[C@]3(C)CC[C@H]4[C@H](C)CC[C@@H]([C@H]1C)[C@@]24OO3
ED90 [8]: 6 mg/kg

CCN(Cc1cc(C2(C)OOC(c3ccccc3O)OO2)ccc1O)c1ccccc1 (configuration not stated)
IC50 [9]: 5.3 µg/mL

C[C@H]1[C@H](NC2CCN(Cc3ccccc3)CC2)O[C@@H]2O[C@]3(C)CC[C@H]4[C@H](C)CC[C@@H]1[C@@]24OO3
ED90 [5]: 0.85 mg/kg
ED90 [6]: 0.7 mg/kg
ED90 [7]: 3 mg/kg
ED90 [8]: 2.4 mg/kg

C[C@@H]1CC[C@H]2[C@@H](C)C(Nc3ccc(Cl)cc3)O[C@@H]3O[C@]4(C)CC[C@@H]1[C@]32OO4 (some centres not stated)
SD50 [23]: 1.77 mg/kg/day

C[C@H]1[C@@H](CCOCc2cccc(F)c2)O[C@@H]2O[C@]3(C)CC[C@H]4[C@H](C)CC[C@@H]1[C@@]24OO3
IC50 [24]: 0.35 nM
IC50 [25]: 3.78 nM
ED50 [20]: 5.08 mg/kg

CC1CC2CCC(C1)[C@@](C)(/C=C/[C@@H](O)C(C)(C)O)OO2 (some centres not stated)
IC50 [18]: 56 nM
ED50 [26]: 95 mg/kg

C[C@H]1[C@H](NS(=O)(=O)N2CCN(c3ccccn3)CC2)O[C@@H]2O[C@]3(C)CC[C@H]4[C@H](C)CC[C@@H]1[C@@]24OO3
IC50 [1]: 0.04 nM
